According to patent US20210147481A1, “PEPTIDE-BASED INHIBITORS OF MARK FAMILY PROTEINS” (Ohio Universtiy, priority 2017, published 2021):
Peptide text beside a SMILES is read from it.

Experiments:
[1] = molecular target: MARK2 (Homo sapiens, UniProt Q7KZI7); assay: In vitro phosphorylation assay: inhibition of MARK2-mediated phosphorylation of hTau-K18 (western blot, α-Tau pSer262); assay type: biochemical
Description: The ability for MARK2 to phosphorylate hTau K18 was evaluated in vitro by incubating MARK2 with hTau-K18 in the presence or absence of ATP (FIG. 1B). All phosphorylation reactions were carried out for 60 minutes at 32° C. in phosphorylation buffer (50 mM Tris-HCl, 5 mM MgCl2, 2 mM EGTA, 0.5 mM DTT, 0.5 mM benzamidine HCl, 0.5 mM PMSF, pH 8.0). Following the reaction, phosphorylated hTau-K18 proteins were separated by SDS-PAGE and identified by western blot using antibodies specific for hTau pSer262 (FIG. 1B, lanes 1 and 2). As a loading control, total hTau-K18 in each lane was quantified by western blot using antibodies specific for non-phosphorylated hTau-K18 (FIG. 1B, lower image). To ensure that the phosphorylation of hTau-K18 was a result of kinase activity and not auto-phosphorylation by ATP, hTau-K18 was incubated in the absence of MARK2 with or without ATP (FIG. 1B, lanes 3 and 4).
The ability for the tR1 peptide to act as an inhibitor of MARK2-mediated phosphorylation of hTau-K18 in vitro was examined. To test this, MARK2 and hTau-K18 were incubated in the presence of varying concentrations of tR1 for 60 minutes at 32° C. in phosphorylation buffer. Following the reaction, the proteins were separated by SDS-PAGE and identified by Western blot using antibodies specific for hTau pSer262 (FIG. 1C). Total hTau-K18 in each lane was quantified using antibodies specific for non-phosphorylated hTau-K18 (FIG. 1C, lower image).
Phosphorylation assays were performed in 30 μL phosphorylation buffer (50 mM Tris-HCl, 5 mM MgCl2, 2 mM EGTA, 0.5 mM DTT, 0.5 mM benzamidine HCl, 0.5 mM PMSF, pH 8.0) and depending on the experimental conditions. 100 μM ATP, 10 μM hTau K18, 10 nM MARK2, and 10 μM tR1 were added to the reaction mixture. The reaction was carried out for 1 hour at 32° C. […] Images were acquired by a Bio-Rad Gel Doc EZ imager and the band intensity was quantified using Image Lab Software c5.2.1 (Bio-Rad).

[2] = molecular target: MARK2 (Rattus norvegicus, UniProt O08679); assay: Immunofluorescence of PAO-induced MARK2-mediated tau Ser262 phosphorylation in neurons; assay type: cell-based
[3] = system: kinases that phosphorylate tau at Thr231; assay: Immunofluorescence of tau Thr231 phosphorylation in neurons; assay type: cell-based, rat
[4] = In vitro peptide stability in RPMI medium with 25% (v/v) human serum (RP-HPLC); assay type: in vitro ADME; settings: 37° C., up to 24 hours
Description: (§1) Stock peptide solutions for use in stability assays were prepared by dissolving tR1 to a final concentration of 5 mg/mL in dimethyl sulfoxide (DMSO). For stability tests, 2 μL of stock tR1 peptides were added to 198 μL pre-warmed RPMI medium supplemented with 25% (v/v) heat-inactivated human AB serum or neurobasal (NB) media at a final concentration of 50 μg/mL. Each reaction was subsequently incubated at 37° C. for the indicated times. Following incubation, 400 μL aqueous trichloroacetic acid (15%, w/v) was added to each reaction and the samples were immediately cooled on ice for 15 minutes. The samples were then centrifuged 3× at 14,000 rpm to remove precipitated proteins. […] The background signal was subtracted from each respective spectrum and the fraction of intact peptide was quantified from product peak integration normalized to undigested controls. […]
(§2) A major limitation to the therapeutic efficacy of peptides is their susceptibility to proteolytic degradation. Indeed, short peptides generally have a serum half-life measured in minutes. The in vitro stability of tR1 peptides in the presence of proteolytic enzymes was determined. […] Following the incubation, the reactions were quenched using haloacetic acids and the extent of degradation was quantified by analytical HPLC.

[5] = In vitro peptide stability in neurobasal (NB) media (RP-HPLC); assay type: in vitro ADME; settings: 37° C., up to 24 hours
Description: as §1, §2

[6] = system: trypsin; assay: Trypsin degradation control (RP-HPLC); assay type: in vitro ADME; settings: 37° C.
Description: as §1, §2

[7] = system: rat primary cortical neurons; settings: 72 hours
Description: Primary cells were isolated from embryonic Sprauge-Dawley rats and cultured as described.
High density rat primary cortical neurons (5-7 DIV) cultured in polyE coated 24-well plates were used for this assay. Culture media was switched to neurobasal without B27 supplement (NB-B27) before the addition of tR1 peptides. […] For the MTT assay, 50 μg/mL MTT working solution was diluted from a 5 mg/mL MTT stock (water solution made from MTT powder, Alfa Aesar L11939) in NB-B27. After aspirating out the culture media, cells were incubated with 0.2 mL 50 μg/mL MTT working solution for one hour at 37° C. Then, the MTT solution was aspirated and replaced with 0.5 mL DMSO. The whole DMSO solution was transferred to a cuvette and read in the spectrophotometer (Cary UV 50, Varian) at 550 nm with subtraction of the reading at 650 nm wavelength.

Sequence of MARK2 (Homo sapiens, UniProt Q7KZI7) (Q7KZI7 whole entry): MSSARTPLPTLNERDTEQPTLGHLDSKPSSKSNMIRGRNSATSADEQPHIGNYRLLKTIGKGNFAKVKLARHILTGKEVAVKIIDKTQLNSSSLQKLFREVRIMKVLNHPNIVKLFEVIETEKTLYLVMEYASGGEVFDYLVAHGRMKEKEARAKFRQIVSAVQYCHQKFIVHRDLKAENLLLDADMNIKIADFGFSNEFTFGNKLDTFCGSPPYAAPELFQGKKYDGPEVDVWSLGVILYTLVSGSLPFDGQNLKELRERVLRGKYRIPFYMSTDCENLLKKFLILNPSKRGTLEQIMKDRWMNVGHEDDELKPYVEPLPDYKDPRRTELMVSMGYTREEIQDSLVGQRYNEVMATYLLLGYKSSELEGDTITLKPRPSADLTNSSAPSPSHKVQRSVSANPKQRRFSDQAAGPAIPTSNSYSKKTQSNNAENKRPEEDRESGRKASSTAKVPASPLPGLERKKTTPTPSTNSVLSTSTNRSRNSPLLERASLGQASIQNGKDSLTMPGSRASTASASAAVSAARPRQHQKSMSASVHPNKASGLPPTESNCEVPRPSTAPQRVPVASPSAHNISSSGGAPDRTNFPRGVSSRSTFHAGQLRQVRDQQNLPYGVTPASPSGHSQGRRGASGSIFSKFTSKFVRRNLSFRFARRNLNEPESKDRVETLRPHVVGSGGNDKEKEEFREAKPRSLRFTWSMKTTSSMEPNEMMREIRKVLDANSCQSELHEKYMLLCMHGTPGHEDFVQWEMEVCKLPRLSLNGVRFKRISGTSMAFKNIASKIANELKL
Sequence of MARK2 (Rattus norvegicus, UniProt O08679) (O08679 whole entry): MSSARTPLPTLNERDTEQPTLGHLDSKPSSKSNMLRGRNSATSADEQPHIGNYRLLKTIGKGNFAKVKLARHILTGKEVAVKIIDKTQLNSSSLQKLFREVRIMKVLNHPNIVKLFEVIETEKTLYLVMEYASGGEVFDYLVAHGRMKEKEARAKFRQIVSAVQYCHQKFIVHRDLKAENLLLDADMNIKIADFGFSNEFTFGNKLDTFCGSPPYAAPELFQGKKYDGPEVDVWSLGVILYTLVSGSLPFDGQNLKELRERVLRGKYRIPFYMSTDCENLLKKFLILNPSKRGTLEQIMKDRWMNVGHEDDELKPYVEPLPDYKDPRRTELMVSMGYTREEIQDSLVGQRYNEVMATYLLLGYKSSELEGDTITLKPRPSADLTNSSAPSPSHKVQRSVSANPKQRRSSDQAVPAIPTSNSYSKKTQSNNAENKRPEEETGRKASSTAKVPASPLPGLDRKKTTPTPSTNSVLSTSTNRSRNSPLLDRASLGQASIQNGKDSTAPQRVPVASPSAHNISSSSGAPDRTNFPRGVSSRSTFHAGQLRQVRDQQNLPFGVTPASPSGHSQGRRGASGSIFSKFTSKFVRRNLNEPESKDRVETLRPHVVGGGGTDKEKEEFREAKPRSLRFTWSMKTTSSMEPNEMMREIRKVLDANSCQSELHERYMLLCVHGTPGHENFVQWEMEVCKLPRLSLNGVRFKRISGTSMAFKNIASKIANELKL

In the case of `CC[C@H](C)[C@H](NC(=O)[C@H](CCCCN)NC(=O)[C@H](CO)NC(=O)[C@H](CCCCN)NC(=O)[C@@H](NC(=O)[C@H](CC(N)=O)NC(C)=O)C(C)C)C(=O)NCC(=O)N[C@@H](CO)C(=O)N[C@H](C(=O)N[C@@H](CCC(=O)O)C(=O)N[C@@H](CC(N)=O)C(=O)N[C@@H](CC(C)C)C(=O)N[C@@H](CCCCN)C(N)=O)[C@@H](C)O` [tR1, NVKSKIGSTENLK] (Ac-NVKSKIGSTENLK-NH2), the “established in vitro inhibitory concentration” value [1] was 10 µM, the inhibition at 50 µM ([1]; 50 μM tR1, 60 minutes at 32° C. in phosphorylation buffer, read-out: inhibition of MARK2 activity (hTau-K18 Ser262 phosphorylation, densitometry)) was no more than 66% and the “concentrations at which tR1 effectively inhibits MARK2-mediated phosphorylation of hTau-K18” value ([1]; 60 minutes at 32° C., western blot) was “greater than 0.5 μM”. The “reduction in tau Ser262 phosphorylation” value ([2]; 10 μM tR1, co-treated with bafilomycin A1 or 100 μM chloroquine, 5 μM PAO) was “modest reduction in tau phosphorylation”, the “loss in tau pSer262 signal compared to cells treated with PAO alone” value ([2]; 30 μM peptide and bafilomycin, PAO) was roughly 50% and the “loss in tau pSer262 signal” value ([2]; 30 μM peptide and chloroquine, PAO) was “loss in signal comparable to that of baseline”. The “inhibition of MARK2-mediated phosphorylation of tau Ser262” value ([2]; 30 μM tR1, co-treated with bafilomycin A1 or 100 μM chloroquine, 5 μM PAO) was “near complete inhibition”, the “inhibition of MARK2-mediated phosphorylation of tau Ser262” value ([2]; tR1 peptides alone (no endosome disruptor), 5 μM PAO) was “did not inhibit” and the “level of pTau Thr231 compared to untreated control cells” value ([3]; 30 μM tR1 and 100 μM CLQ, no PAO) was “did not show any significant loss of pTau Thr231”. For the same molecule, the “effect on PAO-mediated inhibition of tau Thr231 phosphorylation” value ([3]; tR1 with PAO, even in the presence of CLQ) was “did not influence the PAO-mediated inhibition of tau Thr231 phosphorylation”, the “fraction of intact tR1 (stable)” value [4] was greater than 90% and the remaining at 24 h, 50 μg/mL ([4]; RPMI medium with 25% (v/v) heat-inactivated human AB serum, read-out: fraction of intact tR1 (stable)) was greater than 90%. For the same molecule, the “fraction of intact tR1 (stable)” value [5] was greater than 90%, the remaining at 24 h, 50 μg/mL ([5]; neurobasal (NB) media, read-out: fraction of intact tR1 (stable)) was greater than 90% and the degradation by trypsin ([6]; trypsin 10 ng/μL in digestion buffer, 15 minutes) was “complete degradation”. For the same molecule, the “time to degradation in buffer containing trypsin” value ([6]; trypsin 10 ng/μL) was “less than 15 minutes”, the “concentrations at which tR1 is non-toxic” value ([7]; MTT) was “up to 300 μM” and the “loss in cell viability” value ([7]; highest concentrations of tR1 (0-300 μM)) was less than 5%.
